This is an account of results in patent publication US20070155707A1 (Kadmus Pharmaceuticals, Inc., priority 2005, published 2007).

One may read the AUC as concentration integrated over time. High values mean more exposure, low ones less exposure. As usually defined, the Cmax is the highest concentration seen after dosing. A word on the IC50: it is the point on the concentration scale where inhibition reaches its midpoint.

A short description of data set [1]: Determination of pharmacokinetics in rats following oral administration (plasma and brain). Format: in vivo, rat. The note with it: for Brain AUC / Brain Cmax / AUC / Cmax: 10 mg/kg oral gavage, solution; for AUC / Cmax: rat, plasma. As to the method:
Potential FAAH inhibitors are formulated for oral (p.o.), intraperitoneal (i.p.) or intravenous (i.v.) delivery to rats. Formulated compounds are administered and the animals were sacrificed at pre-determined time points post dose. At sacrifice, blood samples are collected into EDTA plasma tubes and whole brains were snap frozen in liquid nitrogen. EDTA plasma was isolated from blood samples after centrifugation. Brain and plasma samples are stored at −80° C. prior to analysis. All samples (brain and plasma) are analyzed for the concentrations of test compound (FAAH inhibitor), metabolites of the test compound and endogenous fatty acid ethanolamide levels (including anandamide, oleoylethanolamide, and palmitoylethanolamide) by LC-MS/MS. Levels of these compounds are compared across time points to determine pharmacokinetic properties of the test compounds and partial pharmacological effects of inhibiting FAAH activity (including changes of fatty acid ethanolamide levels).
The pharmacokinetic properties of compounds provided herein were assessed in rats following oral administration as a solution. […] The solution of the test compound was administered to rats at a dose of 10 mg/kg via oral gavage.

Data set [2] concerns the target T1, fatty acid amide hydrolase (FAAH) (Homo sapiens, UniProt O00519).
T1 construct: 25 μL of human liver microsomes (31.3 μg); from tissue; host or cells: human liver microsomes
T1 sequence (O00519 1-579): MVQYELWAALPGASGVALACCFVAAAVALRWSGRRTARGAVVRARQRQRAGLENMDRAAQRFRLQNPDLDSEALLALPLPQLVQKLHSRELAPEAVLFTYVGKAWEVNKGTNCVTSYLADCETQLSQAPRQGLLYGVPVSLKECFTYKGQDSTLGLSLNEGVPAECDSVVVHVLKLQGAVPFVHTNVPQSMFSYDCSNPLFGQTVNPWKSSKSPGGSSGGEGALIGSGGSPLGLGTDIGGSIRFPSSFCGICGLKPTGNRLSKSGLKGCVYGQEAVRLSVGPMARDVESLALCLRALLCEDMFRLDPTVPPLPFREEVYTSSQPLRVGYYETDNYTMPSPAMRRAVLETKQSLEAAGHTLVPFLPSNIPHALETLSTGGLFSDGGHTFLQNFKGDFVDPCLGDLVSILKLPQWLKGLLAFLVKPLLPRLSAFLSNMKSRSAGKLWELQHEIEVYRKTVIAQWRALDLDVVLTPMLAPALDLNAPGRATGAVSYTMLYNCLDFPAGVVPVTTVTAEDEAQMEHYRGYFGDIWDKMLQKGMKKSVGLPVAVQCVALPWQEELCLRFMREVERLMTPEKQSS
Nature of the data set: FAAH LC-MS/MS screening assay, IC50 determination (anandamide hydrolysis by human liver microsomes). Type of data set: biochemical. To be noted: inhibition of FAAH activity. As to the method: For determining IC50 values for candidate FAAH inhibitor compounds, the above method is used with an adjusted FAAH inhibitor concentration. In the IC50 assay, the FAAH inhibitor is added at a concentration range of approximately 3 μM to 0.03 nM. The final calculation of IC50 is determined by first transforming the concentrations by “X=log(X)” and then analyzing the data with a sigmoidal dose-response curve (no constraints) using GraphPad Prism version 4.00 for Windows (GraphPad Software, San Diego Calif. USA, www.graphpad.com).
(Liver microsomes are a subcellular fraction often used to study metabolism.)

Another data set relates to FAAH. The note with it: Kathuria 2003; Mor 2004; WO 2004/033422; cited from earlier work.

Some results are limits rather than exact numbers.

As to `NC(=O)c1cccc(-c2cccc(OC(=O)NC3CCCCC3)c2)c1` [KDS-4103, reference compound], in data set [1], the “Brain AUC” value is given as 9,737 ng * hr/g, the “Brain Cmax” value is 4,584 ng/g, the AUC worked out at 6730 ng·h/mL and the Cmax worked out at 3160 ng/mL.
Consider `O=C(NCC1CCCCC1)Oc1cccc(C(=O)O)c1` [Compound 2, 3-(Cyclohexylmethylcarbamoyloxy)benzoic acid], for which the IC50 in data set [2] is below 100 nM. In data set [1], this compound had an AUC of 1700 ng·h/mL and a Cmax of 1250 ng/mL.
`O=C(O)Cc1cccc(OC(=O)NCC2CCCCC2)c1` [Compound 7]: the IC50 in data set [2] was below 100 nM.
On the same count and under the same terms, to `O=C(NCC1CCCCC1)Oc1cccc(-c2nnn[nH]2)c1` [Compound 11, 3-(1H-Tetrazol-5-yl)phenyl cyclohexylmethylcarbamate] belongs below 100 nM.
Regarding `NC(=O)c1cccc(-c2cccc(OC(=O)NC3CCCCC3)c2)c1`, the “Inhibition of FAAH activity (in words)” value in the data set with FAAH is “potent and selective inhibitors of FAAH activity”.
In the case of `O=C(NCC1CCCCC1)Oc1ccc(C(=O)O)cc1` [Compound 4, 4-(Cyclohexylmethylcarbamoyloxy)benzoic acid], the IC50 in data set [2] was below 100 nM. In data set [1], the “Brain AUC” value amounted to 483 ng·h/g, the “Brain Cmax” value came out at 475 ng/g, the exposure (AUC) was 8840 ng·h/mL and the highest concentration (Cmax) came to 7720 ng/mL. Moreover, the “Crossing of the blood brain barrier” value in data set [1] (10 mg/kg oral, conclusion from Table 2) is “does not substantially cross the blood brain barrier”.
